From the supplement of paper PMC10307832

How the values were obtained:
Experiment in all cases: relative viability (nuclei count vs DMSO), 5 days (fraction); higher = more cells survive
AZD6482 + Lapatinib = compound: Cc1cc([C@@H](C)Nc2ccccc2C(=O)O)c2nc(N3CCOCC3)cc(=O)n2c1 [AZD6482] + CS(=O)(=O)CCNCc1ccc(-c2ccc3ncnc(Nc4ccc(OCc5cccc(F)c5)c(Cl)c4)c3c2)o1 [Lapatinib] (partner 2 µM)
Procedure, shortened: (§1)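 Five library-drug doses in √10 steps were combined with a fixed anchor-drug dose, or a single drug was given alone, by pin tool to lung cancer cell lines in 1536-well plates the day after seeding. Nuclei were stained and counted after 5 days. Relative viability is the nuclei count in treated wells over that in vehicle wells, taken as the median of duplicate plates.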

AZD6482 + Alpelisib = compound: Cc1cc([C@@H](C)Nc2ccccc2C(=O)O)c2nc(N3CCOCC3)cc(=O)n2c1 [AZD6482] + Cc1nc(NC(=O)N2CCC[C@H]2C(N)=O)sc1-c1ccnc(C(C)(C)C(F)(F)F)c1 [Alpelisib] (partner 2 µM)
Procedure, shortened: as §1

[1] = compound: COc1cc2nc(N3CCCN(C)CC3)nc(NC3CCN(Cc4ccccc4)CC3)c2cc1OC + CS(=O)(=O)CCNCc1ccc(-c2ccc3ncnc(Nc4ccc(OCc5cccc(F)c5)c(Cl)c4)c3c2)o1 [Lapatinib] (partner 2 µM)
Procedure, shortened: as §1

[2] = compound: COc1cc2nc(N3CCCN(C)CC3)nc(NC3CCN(Cc4ccccc4)CC3)c2cc1OC + CS(=O)(=O)N1CCN(Cc2cc3nc(-c4cccc5[nH]ncc45)nc(N4CCOCC4)c3s2)CC1 [Pictilisib] (partner 1 µM)
Procedure, shortened: as §1

Cell Line | relative viability (AZD6482 + Lapatinib; first compound 0.08 µM) | relative viability (AZD6482 + Lapatinib; first compound 0.253 µM) | relative viability (AZD6482 + Lapatinib; first compound 0.8 µM) | relative viability (AZD6482 + Lapatinib; first compound 2.53 µM) | relative viability (AZD6482 + Lapatinib; first compound 8 µM) | relative viability (AZD6482 + Alpelisib; first compound 0.08 µM) | relative viability (AZD6482 + Alpelisib; first compound 0.253 µM) | relative viability (AZD6482 + Alpelisib; first compound 0.8 µM) | relative viability (AZD6482 + Alpelisib; first compound 2.53 µM) | relative viability (AZD6482 + Alpelisib; first compound 8 µM) | relative viability ([1]; first compound 0.2 µM) | relative viability ([1]; first compound 0.6325 µM) | relative viability ([1]; first compound 2 µM) | relative viability ([1]; first compound 6.325 µM) | relative viability ([2]; first compound 0.2 µM) | relative viability ([2]; first compound 0.6325 µM) | relative viability ([2]; first compound 2 µM) | relative viability ([2]; first compound 6.325 µM)
NCI-H2170 | 0.245 | 0.249 | 0.303 | 0.248 | 0.295 | 0.662 | 0.666 | 0.713 | 0.56 | 0.681 | 0.253 | 0.28 | 0.254 | 0.272 | 0.353 | 0.371 | 0.288 | 0.284
NCI-H2085 | 0.42 | 0.407 | 0.457 | 0.366 | 0.372 | 0.426 | 0.409 | 0.351 | 0.34 | 0.409 | 0.698 | 0.772 | 0.798 | 0.605 | 0.446 | 0.522 | 0.471 | 0.404
SW 1573 | 1.15 | 1.13 | 1.02 | 0.771 | 0.759 | 0.518 | 0.533 | 0.47 | 0.303 | 0.407 | 1.15 | 1.07 | 1.26 | 1.05 | 0.478 | 0.539 | 0.537 | 0.325
NCI-H727 | 0.659 | 0.843 | 0.951 |  | 0.667 | 0.398 | 0.535 | 0.46 |  | 0.493 | 0.769 | 0.901 | 0.838 | 0.543 | 0.391 | 0.394 | 0.32 | 0.346
LOU-NH91 | 0.626 | 0.752 | 0.681 | 0.501 | 0.494 | 0.547 | 0.676 | 0.647 | 0.525 | 0.639 | 0.803 | 0.812 | 0.731 | 0.693 | 0.546 | 0.585 | 0.505 | 0.566
NCI-H3122 | 0.965 | 0.993 | 1.03 | 0.893 | 1.11 | 0.696 | 0.717 | 0.754 | 0.394 | 0.677 | 1.07 | 1.01 | 1.01 | 1.01 | 0.589 | 0.634 | 0.601 | 0.478
NCI-H460 | 0.869 | 0.796 | 1.17 | 0.585 | 0.758 | 0.206 | 0.352 | 0.263 | 0.13 | 0.18 | 0.9 | 0.979 | 0.902 | 0.487 | 0.306 | 0.513 | 0.359 | 0.332
NCI-H650 | 0.999 |  | 0.948 | 0.454 | 0.534 | 1.11 |  | 0.997 | 0.656 | 0.778 | 0.731 | 0.839 | 1.3 | 0.692 | 0.959 | 0.707 | 1.03 | 0.562
NCI-H661 | 0.531 | 0.455 | 0.393 |  | 0.369 | 0.656 | 0.454 | 0.486 |  | 0.419 | 0.568 | 0.503 | 0.68 | 0.563 | 0.338 | 0.406 | 0.428 | 0.466
NCI-H1793 | 0.559 | 0.368 | 0.565 |  | 0.321 | 0.537 | 0.519 | 0.48 |  | 0.406 | 0.75 | 0.742 | 0.855 | 0.664 | 0.317 | 0.342 | 0.282 | 0.372
NCI-H1734 | 0.933 | 1.02 | 1.16 | 0.632 | 0.612 | 0.416 | 0.444 | 0.431 | 0.338 | 0.521 | 1.11 | 0.977 | 1.06 | 0.76 | 0.459 | 0.418 | 0.392 | 0.384
LXF-289 | 0.924 | 0.913 | 0.892 | 0.821 | 0.937 | 0.946 | 1.01 | 0.966 | 0.798 | 0.706 | 0.854 | 0.878 | 0.886 | 0.907 | 0.8 | 0.778 | 0.804 | 0.762
H3255 | 0.194 | 0.221 | 0.263 | 0.182 | 0.152 | 0.531 | 0.54 | 0.614 | 0.335 | 0.496 | 0.235 | 0.273 | 0.258 | 0.165 | 0.487 | 0.397 | 0.529 | 0.422
201T | 1.02 | 1.04 | 1.17 | 0.843 | 0.993 | 0.908 | 0.809 | 0.842 | 0.714 | 0.848 | 0.95 | 1.04 | 1.08 | 0.982 | 0.742 | 0.717 | 0.64 | 0.683
NCI-H2126 | 0.635 | 0.644 | 0.636 | 0.519 | 0.49 | 0.608 | 0.569 | 0.606 | 0.476 | 0.559 | 0.74 | 0.742 | 0.796 | 0.732 | 0.505 | 0.557 | 0.456 | 0.47
HOP-62 | 1.06 | 0.856 | 1.32 | 0.827 | 1.1 | 1 | 0.959 | 1.19 | 0.531 | 0.903 | 1.04 | 1.05 | 1.07 | 1 | 0.586 | 0.688 | 0.555 | 0.496
CAL-12T | 0.601 |  | 0.529 | 0.272 | 0.578 | 0.902 | 0.661 | 0.901 | 0.535 | 0.721 | 0.58 | 0.626 | 0.603 | 0.672 | 0.402 | 0.53 | 0.388 | 0.34
